The values that follow come from patent US4963542A, “Cephalosporin derivatives” (Takeda Chemical Industries, Ltd., priority 1976, dated 1990).

Test in all cases: Minimal inhibitory concentration, agar serial dilution
Holding throughout (type): cell-based
Holding throughout (conditions): TSA, inoculum 10^7 /ml

Test [1] deals with Proteus rettgeri GN4733. The source says:
(§1) (a) Minimal inhibitory concentrations (Table 1 and 2)
(§2) Method: Agar serial dilution

The test system of test [2] is Proteus vulgaris IFO 3988.
From the text: as §1, §2

For test [3], the system named is Staphylococcus aureus 1840.
From the text: as §1, §2

Test [4] deals with Escherichia coli NIHJ JC-2.
From the text: as §1, §2

The subject of test [5] is Escherichia coli T-7.
From the text: as §1, §2

Test [6] concerns Serratia marcescens TN24.
From the text: as §1, §2

Test [7] has as its system Proteus mirabilis GN4359.
From the text: as §1, §2

Test [8] relates to Klebsiella pneumoniae DT.
From the text: as §1, §2

For test [9], the system named is Proteus morganii IFO3168.
From the text: as §1, §2

Test [10] concerns Citrobacter freundii GN99.
From the text: as §1, §2

The subject of test [11] is Citrobacter freundii GN1706.
From the text: as §1, §2

Test [12] has as its system Staphylococcus aureus 209P.
From the text: as §1, §2

In test [13] the test system is Serratia marcescens IFO 12648.
From the text: as §1, §2

Test [14] has as its system Proteus rettgeri TN338.
From the text: as §1, §2

In test [15] the test system is Proteus vulgaris GN4413.
From the text: as §1, §2

Test [16] concerns Escherichia coli 0-111.
From the text: as §1, §2

Test [17] has as its system Klebsiella pneumoniae GN-3835.
From the text: as §1, §2

The test system of test [18] is Enterobacter cloacae TN1282.
From the text: as §1, §2

Turning to `Cc1nnc(SCC2=C(C(=O)[O-])N3C(=O)C(NC(=O)Cn4cnnn4)[C@H]3SC2)s1.[Na+]` (stereo partly shown) [Cefazolin, sodium 7-(1H-tetrazol-1-yl)acetamido-3-(2-methyl-1,3,4-thiadiazol-5-yl)thiomethyl-3-cephem-4-carboxylate, reference compound], the “Minimal inhibitory concentration (MIC)” value in test [1] is reported as 100; in test [2] it was 3.13; in [3], 1.56; in [4] it was 1.56; in test [5] it was 50; in [6] it was > 100. The “Minimal inhibitory concentration (MIC)” value in test [7] is 6.25; in [8] it was 1.56; in [9], 100; in test [10], 12.5; in test [11] it was > 100; in test [12], 0.39. The “Minimal inhibitory concentration (MIC)” value is on record as > 100 in test [13]; ≤ 0.2 in test [14]; > 100 in test [15]; 1.56 in test [16]; 6.25 in test [17].

`CC(=O)OCC1=C(C(=O)[O-])N2C(=O)C(NC(=O)Cc3cccs3)[C@H]2SC1.[Na+]` (stereo partly shown) [Cephalothin, sodium 7-(2-thienylacetamido)-3-acetoxymethyl-3-cephem-4-carboxylate, reference compound]: the “Minimal inhibitory concentration (MIC)” value in [18] is > 100; in test [1], > 100; in test [2] it was 1.56; in test [3], 0.39; in test [4], 12.5; in [5], 100. The “Minimal inhibitory concentration (MIC)” value in test [6] is recorded as > 100; in test [7], 3.13; in test [8] it was 1.56; in test [9], > 100; in [10], 25; in [11], > 100. Further, the “Minimal inhibitory concentration (MIC)” value was 0.20 in [12]; > 100 in test [13]; 1.56 in test [14]; > 100 in test [15]; 3.13 in [16]; 12.5 in [17].

As to `N=c1[nH]c(/C(=N/O)C(=O)NC2C(=O)N3C(C(=O)O)=C(CSc4cnn[nH]4)CSC23)cs1` (stereo not drawn) [Example 13, sodium 7-[2-(2-imino-4-thiazolin-4-yl)-2-hydroxyimino-acetamido]-3-(1,2,3-triazol-5-yl)thiomethyl-3-cephem-4-carboxylate (syn-isomer)], the “Minimal inhibitory concentration (MIC)” value in test [18] is 25; in test [1] it was 0.20; in test [2], 0.10; in test [3] it was 0.78; in test [4] it was 0.10; in test [5] it was 0.78. The “Minimal inhibitory concentration (MIC)” value in [6] worked out at 1.56; in [7], 0.10; in test [8] it was 0.05; in test [9], 0.20; in test [10], 0.39; in [11] it was 0.78. Besides, the “Minimal inhibitory concentration (MIC)” value in test [12] is 0.78; in [13] it was 12.5; in [14], ≤ 0.012; in test [15], 50; in [16] it was 0.05; in [17], 0.20.

Take `Cc1nsc(SCC2=C(C(=O)O)N3C(=O)C(NC(=O)/C(=N\O)c4csc(=N)[nH]4)C3SC2)n1` (stereo not drawn) [Example 14, sodium 7-[2-(2-imino-4-thiazoline-4-yl)-2-hydroxyimino-acetamido]-3-(3-methyl-1,2,4-thiadiazol-5-yl)thiomethyl-3-cephem-4-carboxylate (syn-isomer)]: the “Minimal inhibitory concentration (MIC)” value in test [18] was found to be 6.25; in test [1] it was 0.39; in test [2], 0.10; in test [3], 0.78; in [4] it was 0.39; in [6], 0.78. Moreover, the “Minimal inhibitory concentration (MIC)” value stood at 0.39 in test [7]; 0.20 in [8]; 0.20 in test [9]; 0.39 in test [10]; 0.78 in test [11]; 0.39 in [12]. Besides, the “Minimal inhibitory concentration (MIC)” value came out at 6.25 in [13]; 0.024 in [14]; 1.56 in test [15]; 0.20 in test [16]; 0.78 in [17].

Turning to `N=c1[nH]c(C(=NO)C(=O)NC2C(=O)N3C(C(=O)[O-])=C(C[n+]4ccc(C(N)=O)cc4)CSC23)cs1` (stereo not drawn) [Example 17, 7-[2-(2-imino-4-thiazolin-4-yl)-2-hydroxyimino-acetamido]-3-(4-carbamoylpyridiniummethyl)-3-cephem-4-carboxylate (syn-isomer)], the “Minimal inhibitory concentration (MIC)” value in [18] is reported as 12.5; in [1], 0.20; in test [2] it was 0.39; in test [3], 0.39; in test [4], 0.39; in test [5] it was 25. Further, the “Minimal inhibitory concentration (MIC)” value in test [6] was found to be 0.78; in test [7], 0.39; in test [8], 0.20; in test [9], 0.39; in test [10], 0.20; in test [11], 0.78. Besides, the “Minimal inhibitory concentration (MIC)” value in test [12] is 0.39; in [13], 1.56; in [14], 0.05; in [15], 3.13; in test [16] it was 0.20; in [17], 1.56.

With `N=c1[nH]c(/C(=N/O)C(=O)NC2C(=O)N3C(C(=O)O)=C(COC(N)=O)CSC23)cs1` (stereo not drawn) [Example 26, sodium 7-[2-(2-imino-4-thiazolin-4-yl)-2-hydroxyimino-acetamido]-3-carbamoyloxymethyl-3-cephem-4-carboxylate (syn-isomer)], the “Minimal inhibitory concentration (MIC)” value is recorded as 12.5 in test [18]; 0.024 in test [1]; 0.10 in test [2]; 0.78 in [3]; 0.05 in test [4]; 0.39 in test [5]. Also, the “Minimal inhibitory concentration (MIC)” value in [6] was found to be 1.56; in [7], 0.05; in [8] it was 0.024; in test [9], 0.39; in test [10] it was 0.05; in test [11], 0.10. For the same molecule, the “Minimal inhibitory concentration (MIC)” value in test [12] is listed as 0.78; in test [13], 12.5; in test [14], ≤ 0.012; in test [15], 50; in test [16] it was 0.024; in [17] it was 0.05.
